Results as given in PubChem BioAssay (NCI).
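Interpolation was linear, between the two tested concentrations surrounding the appropriate level; five concentrations were tested over 48 hours in 96-well plates. TGI: concentration producing complete growth inhibition.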

Key:
Experiment in all cases: NCI tumour cell line growth inhibition, 48 h
SF-295 CNS = test system: SF-295 CNS
NCI-H522 lung = test system: NCI-H522 lung
OVCAR-3 ovarian = test system: OVCAR-3 ovarian
UO-31 renal = test system: UO-31 renal
UACC-257 melanoma = test system: UACC-257 melanoma
DU-145 prostate = test system: DU-145 prostate
PC-3 prostate = test system: PC-3 prostate
CAKI-1 renal = test system: CAKI-1 renal
RXF 393 renal = test system: RXF 393 renal
HOP-92 NSCLC = test system: HOP-92 NSCLC
SF-268 CNS = test system: SF-268 CNS
M14 melanoma = test system: M14 melanoma
BT-549 breast = test system: BT-549 breast
SK-MEL-2 melanoma = test system: SK-MEL-2 melanoma
T-47D breast = test system: T-47D breast

| SMILES | TGI (SF-295 CNS) [µM] | TGI (NCI-H522 lung) [µM] | TGI (OVCAR-3 ovarian) [µM] | TGI (UO-31 renal) [µM] | TGI (UACC-257 melanoma) [µM] | TGI (DU-145 prostate) [µM] | TGI (PC-3 prostate) [µM] | TGI (CAKI-1 renal) [µM] | TGI (RXF 393 renal) [µM] | TGI (HOP-92 NSCLC) [µM] | TGI (SF-268 CNS) [µM] | TGI (M14 melanoma) [µM] | TGI (BT-549 breast) [µM] | TGI (SK-MEL-2 melanoma) [µM] | TGI (T-47D breast) [µM] |
| --- | --- | --- | --- | --- | --- | --- | --- | --- | --- | --- | --- | --- | --- | --- | --- |
| CC1(c2ccccc2)O[C@@H]2C[C@H]3[C@@H]4CCC5=CC(=O)C=C[C@]5(C)[C@@]4(F)[C@@H](O)C[C@]3(C)[C@]2(C(=O)CO)O1 (stereo not given in full) | 36.2 | 25 | 28.7 | 33 | 33.1 | 35 | 30.9 | 56 | 36.3 | 38.4 | 49 | 30.6 | 38.6 | 28.3 | 41 |
| [N-]=[N+]=NC1C(O)C(CO)OC1n1ccc(N)nc1=O (stereo not given) | > 625 | > 625 | > 595 | 616 | > 625 | > 625 | > 625 | > 625 | > 602 | > 625 | > 625 | 186 | > 625 | > 585 | > 189 |
| CCCCCCCCOC(=O)C12Oc3ccc(-c4ccc5c(c4O)C(O)=C4C(=O)CC(C)C(O)C4(C(=O)OCCCCCCCC)O5)c(O)c3C(O)=C1C(=O)CC(C)C2O (stereo not given) | 48 | 48.2 | > 100 | 92.2 | > 100 | > 100 | > 100 | 64.3 | 11.3 | 42.5 | > 100 | > 100 | 41.9 | 47.4 | > 100 |
| CC(=O)OCC1(C)C(O)CCC2(C)C1CCC1CC3CC12CCC3(O)CO (stereo not given) | > 100 | > 100 | > 100 | > 100 | > 100 | > 100 | > 100 | > 100 | > 100 | > 100 | > 100 | > 100 | > 100 | > 100 | > 100 |
| COC(=O)C1(C(=O)OC)N=C(C)OC1c1ccccc1O (stereo not given) | > 100 | – | > 100 | > 100 | > 100 | > 100 | > 100 | > 100 | > 100 | > 100 | – | > 100 | > 100 | > 100 | > 100 |
| CSc1c(C#N)c(=O)n(N)c2c1c(C)nn2-c1ccccc1 | – | > 100 | 77 | 51.9 | 60.9 | > 100 | 76.7 | 43 | 69.1 | – | > 100 | > 100 | > 100 | 63.3 | 81 |
| C=C1N(S(=O)(=O)c2ccc(C)cc2)C(=O)OCC12CCCC2 | > 100 | > 100 | > 100 | > 100 | > 100 | > 100 | > 100 | > 100 | > 100 | > 100 | – | > 100 | > 100 | – | > 100 |
| C=C1CC[C@@H]2C13[C@@H]1[C@H](CC(=O)[C@@]23C)C1(C)C (stereo not given in full) | > 100 | > 100 | > 100 | > 100 | > 100 | > 100 | > 100 | > 100 | > 100 | > 100 | > 100 | > 100 | > 100 | > 100 | > 100 |
| CC1=NN(c2ccc(S(=O)(=O)O)cc2)C2(C1)C(Cl)C(=O)N2c1nc2ccccc2s1 (stereo not given) | > 100 | > 100 | > 100 | > 100 | > 100 | > 100 | > 100 | > 100 | > 100 | > 100 | > 100 | > 100 | > 100 | > 100 | > 100 |
| CCN(CC)CCNc1ccc2ncn3c4ccc(OC)cc4c(=O)c1c23 | 11.6 | 21.4 | 24.2 | 11.8 | 28.3 | 20.7 | 18.8 | 21 | 7.69 | 23 | 14.4 | 11.7 | 33 | 25.4 | 40.5 |
| O=S1SC(=S)C2C=CC=NC21 (stereo not given) | 62.3 | 53 | 56.2 | 28.4 | 29 | 31.4 | 30.5 | > 100 | 32.5 | 37.6 | 44.6 | 29.6 | 33.9 | 36.6 | 58.9 |
| COc1ccc(N2C(=O)C(Cl)C2c2cc3cc(Br)ccc3nc2Cl)cc1 (stereo not given) | > 25 | 8.33 | > 25 | 2.43 | 11.9 | 21.2 | 21 | 18.9 | 9.38 | 18.3 | 19 | 11 | 9.11 | 11.1 | > 25 |
| N#Cc1c(Cl)cc(C#N)n2c1nc1ccccc12 | 30.1 | 5.69 | 10.7 | 19 | 29.7 | 41.3 | 32.6 | 16.7 | 28.7 | 16.8 | 13.6 | 22.2 | 18.4 | 33 | 11.1 |
| CCCC(=O)OCC1OC(n2cc(F)c(=O)[nH]c2=O)CC1O (stereo not given) | > 3.02 | > 10 | > 10 | > 10 | > 10 | > 10 | > 10 | > 10 | > 10 | > 10 | > 10 | > 10 | > 10 | > 10 | > 10 |
| Cn1nnc2c(C(N)=S)ncn2c1=O | > 100 | > 100 | > 100 | > 100 | > 100 | > 100 | > 100 | > 100 | > 100 | > 100 | > 100 | > 100 | > 100 | > 100 | > 100 |
| Cc1c(C(=O)c2ccccc2)[n+](=O)c2cc(Cl)c(Cl)cc2n1[O-] | 28.7 | – | 25 | 26.1 | 16.5 | 31.5 | 59.5 | 14.1 | 19.2 | 15.2 | 29.5 | 7.7 | 31.5 | 21.3 | 14 |

| SMILES | TGI (SF-295 CNS) [µM] | TGI (NCI-H522 lung) [µM] | TGI (OVCAR-3 ovarian) [µM] | TGI (UO-31 renal) [µM] | TGI (UACC-257 melanoma) [µM] | TGI (DU-145 prostate) [µM] | TGI (PC-3 prostate) [µM] | TGI (CAKI-1 renal) [µM] | TGI (RXF 393 renal) [µM] | TGI (HOP-92 NSCLC) [µM] | TGI (SF-268 CNS) [µM] | TGI (M14 melanoma) [µM] | TGI (BT-549 breast) [µM] | TGI (SK-MEL-2 melanoma) [µM] | TGI (T-47D breast) [µM] |
| --- | --- | --- | --- | --- | --- | --- | --- | --- | --- | --- | --- | --- | --- | --- | --- |
| N=c1oc2ccccc2cc1C(=O)Nc1cccc2ccccc12 | – | – | > 100 | – | > 100 | > 100 | > 100 | > 100 | > 100 | > 100 | > 100 | > 100 | > 100 | > 100 | > 100 |
| CC1(C)Cc2c(sc3[nH]c(=S)[nH]c(=S)c23)CS1 | – | – | 82.9 | > 100 | 73.8 | > 100 | > 100 | > 100 | > 100 | 50.4 | > 100 | > 100 | > 100 | > 100 | 61.4 |
| Cc1cc(C)c(NS(=O)c2cccc(C(F)(F)F)c2)c(C)c1 (stereo not given) | > 100 | – | > 100 | > 100 | > 100 | > 100 | > 100 | – | > 100 | > 100 | > 100 | > 100 | > 100 | – | > 100 |
| C/C=C/c1cc2c(cc1O)CC[C@@H]1[C@@H]2CC[C@]2(C)[C@@H](O)CC[C@@H]12 | 14.2 | 0.117 | 2.24 | 18.5 | 22.4 | 3.05 | 23 | 21.1 | 1.3 | – | 21.5 | 4.05 | 22.8 | 16.7 | 41.7 |
| C[C@@H]1S[C@H](c2c(F)cccc2Cl)n2c1nc1ccccc12 | 42 | – | 28.2 | 24.2 | 38.5 | > 100 | 23.7 | 76.5 | 28.8 | – | 36.3 | 42 | 28.2 | 29.3 | 79.5 |
| c1ccc2sc(SSSc3nc4ccccc4s3)nc2c1 | > 100 | > 100 | – | > 100 | > 100 | > 100 | > 100 | > 100 | > 100 | > 100 | > 100 | > 100 | > 100 | > 100 | > 100 |
| CC(Br)CN1CCOCC1 (stereo not given) | – | > 100 | > 100 | > 100 | > 100 | > 100 | > 100 | > 100 | > 100 | > 100 | > 100 | > 100 | > 100 | > 100 | > 100 |
| COC(=O)/C=C/CCC#Cc1ccccc1C#CCC/C=C/C(=O)OC | > 100 | 18.6 | 28.2 | > 100 | > 100 | > 100 | > 100 | 10.1 | 27 | 85.4 | > 100 | > 100 | > 100 | – | 97.9 |
| CN(C)c1ccc(C=Nc2ccc(-c3nc4ccccc4s3)cc2)cc1 | 29.9 | 51.2 | 57.6 | > 100 | 82.8 | > 100 | 71.5 | > 100 | 52.2 | 59.4 | – | > 100 | > 100 | 58.9 | 73.9 |
| C=C(C)C1CC[C@@](C)(O)[C@H](C#N)C1 (stereo not given in full) | > 100 | > 100 | > 100 | > 100 | > 100 | > 100 | > 100 | > 100 | > 100 | – | > 100 | > 100 | > 100 | > 100 | > 100 |
| CC(C)(C)OC(=O)N(O)[C@@H]1CC[C@H](n2cnc3c(N)ncnc32)C1 | > 100 | > 100 | > 100 | > 100 | > 100 | > 100 | > 100 | – | > 100 | > 100 | > 100 | > 100 | > 100 | > 100 | > 100 |
| COc1cc(S(=O)(=O)Nc2ccc(-c3csc(N4C(=O)C(C)SC4c4cccs4)n3)cc2)ccc1Cl (stereo not given) | > 100 | 56.6 | > 100 | > 100 | – | 53.1 | > 100 | > 100 | 31.1 | > 100 | > 100 | > 100 | > 100 | 22.8 | 27.3 |
| Clc1cccc(-c2nc3cccc4c3n2Cc2ncccc2-4)c1 | > 100 | > 100 | > 100 | – | > 100 | > 100 | > 100 | > 100 | > 100 | > 100 | > 100 | > 100 | > 100 | – | > 100 |
| COc1ccccc1-n1nnc2c(N)nc(N)nc21 | > 100 | > 100 | > 100 | > 100 | > 100 | > 100 | > 100 | > 100 | – | > 100 | > 100 | > 100 | > 100 | > 100 | > 100 |
| CCOC(=O)C1=C(C)N(c2ccc(Cl)cc2)C2(O)C=CC(=O)C3=C(O)c4ccccc4C(=O)C312 (stereo not given) | 22.4 | 6.45 | 5.84 | 15.8 | 42.7 | 21.1 | 15.8 | 9.21 | – | 8.98 | 6.86 | 12.4 | 28 | 16.2 | 15.8 |
| CCO/C(O)=C(/C(=N)N1CCOCC1)C(=O)NC(C)C | > 100 | > 100 | > 100 | – | > 100 | > 100 | > 100 | > 100 | > 100 | > 100 | > 100 | > 100 | > 100 | > 100 | > 100 |
